The values below come from publication PMC7801115, “Preclinical in vitro screening of newly synthesised amidino substituted benzimidazoles and benzothiazoles” (Journal of Enzyme Inhibition and Medicinal Chemistry, 2021).

Series [1] relates to A549. The series can be described thus: BrdU proliferation assay, 2D cell culture. Format: cell-based. Conditions: Homo sapiens, A549, 2D cell culture, ±SD, N = 2. Here is the method: Cells were grown in 96 well cell star polystyrene plates. 10,000 cells/well were seeded in wells 4 h prior the treatment with different compounds concentrations and incubated for 72 h. A cell viability assay was performed according to the manufacturer’s instruction, using CellTiter 96 aqueous solution, MTS kit (Promega, Madison, WI, USA). After 0.5–2 h of cell incubation with MTS in 2 D cell culture, the plates were read using PE EnVision absorbance at 490 nm. The results for each of tested compounds are reported as growth percentages from two independent concentrations curves compared with the untreated control cells after drug exposure. Since we prefer homogeneous assays (mix and read procedures) and therefore MTS is more practical (one step less than MTT). MTS is more sensitive and accurate in comparison with MTT assay.
(§1) Proliferation assay was performed using Cell Proliferation ELISA, BrdU (Sigma, St. Louis, MO, USA). Briefly, 48 h hours after compound addition, 10 µM of BrdU was added to each well and incubated for following 24 h. After incubation, single cell suspension was made for 3 D cell culture in the new 96 well plate. Plates were centrifuged and supernatants were removed from each plate (for 2 D and 3 D cell culture) followed by 60 min incubation at 60° C. The rest of the proliferation assay was performed according to the manufacturer instructions.
Calculation of IC50 data, curves and QC analysis is made by using Excel tools and GraphPadPrism software (La Jolla, CA), v. 5.03. In brief, individual concentration–effect curves are generated by plotting the logarithm of the tested concentration of tested compounds (X) versus corresponding percent inhibition values (Y) using least squares (ordinary) fit. […] QC criteria parameters (Z', S:B, R2, HillSlope) were checked for every IC50 curve.

Series [2] relates to HCC827. Description: Cell viability assay, 3D hanging drop cell culture (CellTiter GLO 3D). Format: cell-based. The conditions noted are these: Homo sapiens; HCC827, 3D hanging drop cell culture, 72 h; ±SD, N = 2; read-out: IC50 antitumor activity HCC827 3D. Summed up:
(§2)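 Spheroids formed from 5000 cells/well over 4 days in hanging drops, then treated with 1:3 compound dilutions (top 100 µM, 0.5–1.0% DMSO) for 72 h. Viability read by CellTiter-Glo 3D luminescence; IC50 from curve fits with Z', S:B, R2 and Hill slope QC.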
On the technique in general: In ATP-based viability assays light output follows the ATP content of the culture.

In series [3] the test system is A549. Described as above. Format: cell-based. Conditions: Homo sapiens; A549, 3D hanging drop cell culture, 72 h; ±SD, N = 2; read-out: IC50 antitumor activity A549 3D. Summed up:
as §2

The test system of series [4] is HCC827. Description: BrdU proliferation assay, 3D cell culture. Format: cell-based. Conditions: Homo sapiens, HCC827, 3D cell culture, ±SD, N = 2. As to the method: Cells were grown in 96 well Perfecta 3 D hanging drop plates 5000 cell/well for 4 days until spheres were formed (and checked under the microscope). After sphere formation cells were treated with compounds followed by 72 h incubation. Cell viability assay was performed according to the manufacturer’s instruction, using CellTiter GLO 3 D for 3 D cell culture (Promega); cell incubation was 5 min on the shaker followed by 25 min incubation in the dark. Plates were read using PE EnVision luminescence.
as §1
Calculation of IC50 data, curves and QC analysis is made by using Excel tools and GraphPadPrism software (La Jolla, CA), v. […] QC criteria parameters (Z', S:B, R2, HillSlope) were checked for every IC50 curve.

Series [5] in a line: Metabolic stability in liver microsomes. Format: in vitro ADME. Conditions: 60 min. As to the method: Tested compounds (final concentration of 1 µM, 0.1% DMSO), as well as testosterone and propranolol as positive controls and caffeine as negative control were incubated in phosphate buffer (50 mM, pH 7.4) for 60 min at 37 °C with liver microsomes (human and mouse) in the absence and presence of the NADPH cofactor. The NADPH generating system was prepared in phosphate buffer and consisted of nicotinamide adenine dinucleotide phosphate (NADP, 0.38 mM), glucose-6-phosphate (1.49 mM), glucose-6-phosphate dehydrogenase (1.5 U) and magnesium chloride (0.1 mM). Aliquots were taken at different time points (0, 10, 20, 30, 45 and 60 min) and reaction was terminated by addition of a MeCN/MeOH (2:1) mixture, containing diclofenac as internal standard. Samples were then centrifuged (at 4500 rpm, at 4 °C, for 30 min) and resulting supernatants were subjected to LC-MS/MS analysis. The in vitro half life (t½) was determined from the slope of the linear regression of ln % parent compound remaining versus incubation time. In vitro intrinsic clearance, expressed as µl/min/mg liver, was determined from in vitro half life (t½) and normalised for the protein concentration in the incubation mixture. Predicted in vivo hepatic clearance was determined from in vitro intrinsic clearance assuming 52.5 mg of protein/g of liver and using constant values for liver weight/body weight [g/kg] (25.7 for human, 87.5 for mouse) and liver blood flow (LBF) [ml/min/kg] (21 for human and 131 for mouse).
All ADME samples were analysed on a Sciex API 4000 or Sciex API4500 Triple Quadrupole Mass Spectrometer (Sciex, Framingham, MA, USA) coupled to a UHPLC System (Shimadzu Nexera X2; Shimadzu, Kyoto, Japan). Samples were injected onto an UPLC column (HALO2 C18, 2.1 × 20 mm, 2 µm or Phenomenex Luna Omega Polar C18, 30 × 2.1 mm, 1.6 µm) and eluted with a gradient at temperature of 50 °C. The mobile phase was composed of acetonitrile (with 0.1% formic acid) and 0.1% formic acid in deionised water. A total run time was 1 or 1.5 min, with the flow rate of 0.7 ml/min (under gradient conditions). A positive ion mode with turbo spray, an ion source temperature of 500 °C and a dwell time of 150 ms were utilised for mass spectrometric detection. Multiple reaction monitoring (MRM) was used at the specific transitions for each compound/control tested: compound 5c: 361.9 → 304.9; compound 5d: 344.8 → 287.9; compound 5e: 349.8 → 292.9; compound 5 g: 350.8 → 293.9; compound 5 h: 344.0 → 286.9; compound 6a: 276.9 → 220.0; compound 5 b: 319.0 → 262.0; compound 6 b: 302.1 → 245.1; compound 6c: 344.9 → 288.0; compound 6d: 333.0 → 276.0; compound 6e: 316.1 → 259.0; compound 6f: 327.1 → 270.0; compound 6 g: 377.1 → 320.1; testosterone: 289.3→ 97.1; propranolol: 260.1 → 182.8; caffeine: 195.2 → 138.1; acebutolol: 337.2 → 116.2, nicardipine: 480.2 → 315.0; verapamil: 455.4 → 165.1; amprenavir: 506.2 → 245.4; diclofenac: 296.1 → 213.7 or 296.2 → 215.3; eucatropine: 292.2 → 109.1; benfluorex: 352.1 → 230.3, and warfarin: 309.2 → 163.2
Background: Liver microsomes are a subcellular fraction often used to study metabolism.

The IC50 is the concentration needed to halve the response being measured.

Some results are limits rather than exact numbers.

As to `Cl.N#Cc1ccc(-c2nc3ccc(C4=NCCCN4)cc3s2)cc1` [Compound 5b, 2–(4-Cyanophenyl)-6–(3,4,5,6-tetrahydropyrimidin-1-ium-2-yl)benzothiazole chloride], the IC50 in series [1] is > 50 µM; in series [2] it was > 100 µM; in series [3] it was 60 ± 1.44 µM; in series [4] it was > 100 µM. Moreover, the “Microsomes (1 µM) Predicted in vivo hep CL, Human” value in series [5] is given as <30 %LBF. The “Microsomes (1 µM) Predicted in vivo hep CL, Mouse” value in series [5] is <30 %LBF.

Consider `Cl.FC(F)(F)c1ccc(-c2nc3ccc(C4=NCCCN4)cc3s2)cc1` [Compound 5c, 2–(4-Trifluoromethylphenyl)-6–(3,4,5,6-tetrahydropyrimidin-1-ium-2-yl)benzothiazole chloride], for which the IC50 in series [1] stood at 48 ± 0.73 µM; in series [2], 12 ± 0.16 µM; in series [3], 16 ± 0.65 µM; in series [4], 21 ± 1.41 µM. The “Microsomes (1 µM) Predicted in vivo hep CL, Human” value in series [5] is <30 %LBF. The “Microsomes (1 µM) Predicted in vivo hep CL, Mouse” value in series [5] was <30 %LBF.

In the case of `Cl.c1ccc2nc(-c3nc4ccc(C5=NCCCN5)cc4s3)ccc2c1` [Compound 5d, 2-(Quinoline-2-yl)-6–(3,4,5,6-tetrahydropyrimidin-1-ium-2-yl)benzothiazole chloride], the IC50 was 1 µM in series [1], > 100 µM in series [2], 16 ± 1.3 µM in series [3] and 32 ± 11.7 µM in series [4]. Further, the “Microsomes (1 µM) Predicted in vivo hep CL, Human” value in series [5] was <30 %LBF. The “Microsomes (1 µM) Predicted in vivo hep CL, Mouse” value in series [5] is listed as <30 %LBF.

Consider `Cl.c1ccc2sc(-c3nc4ccc(C5=NCCCN5)cc4s3)cc2c1` [Compound 5e, 2-(Benzo[b]thiophen-2-yl)-6–(3,4,5,6-tetrahydropyrimidin-1-ium-2-yl)benzothiazole chloride], for which the 50% inhibitory concentration (IC50) in series [1] stood at 16 ± 0.39 µM; in series [2] it was 22 ± 9.45 µM; in series [3], 23 ± 6.24 µM; in series [4] it was 24 ± 7.63 µM. The “Microsomes (1 µM) Predicted in vivo hep CL, Human” value in series [5] is recorded as <30 %LBF.

`Cl.c1ccc2sc(-c3nc4ccc(C5=NCCCN5)cc4s3)nc2c1` [Compound 5g, 2-(Benzothiazole-2-yl)-6–(3,4,5,6-tetrahydropyrimidin-1-ium-2-yl)benzothiazole chloride]: the IC50 in series [1] was 7 ± 2.31 µM; in series [2] it was 17 ± 0.93 µM; in series [3] it was 15 ± 1.35 µM; in series [4] it was 17 ± 0.93 µM. In addition, in series [5], the “Microsomes (1 µM) Predicted in vivo hep CL, Human” value is given as <30 %LBF. For the same molecule, in series [5], the “Microsomes (1 µM) Predicted in vivo hep CL, Mouse” value is <30 %LBF.

For `Cl.c1ccc2cc(-c3nc4ccc(C5=NCCCN5)cc4s3)ccc2c1` [Compound 5h, 2-(Naphthalene-2-yl)-6–(3,4,5,6-tetrahydropyrimidin-1-ium-2-yl)benzothiazole chloride], the IC50 in series [1] is 10 ± 0.78 µM; in series [2] it was 12 ± 0.26 µM; in series [3], 14 ± 0.38 µM; in series [4], 12 ± 0.26 µM. Moreover, the “Microsomes (1 µM) Predicted in vivo hep CL, Human” value in series [5] was <30 %LBF. Moreover, the “Microsomes (1 µM) Predicted in vivo hep CL, Mouse” value in series [5] is given as <30 %LBF.

`c1ccc(-c2nc3cc(C4=NCCCN4)ccc3[nH]2)cc1` [Compound 6a, 2-Phenyl-5(6)–(3,4,5,6-tetrahydropyrimidin-1-ium-2-yl)benzimidazole chloride]: the IC50 in series [1] was determined as 11 ± 5.56 µM; in series [2] it was 9 ± 3.05 µM; in series [3], 13 ± 1.46 µM; in series [4] it was 12 ± 0.25 µM. In addition, the “Microsomes (1 µM) Predicted in vivo hep CL, Human” value in series [5] was 56 %LBF. Moreover, the “Microsomes (1 µM) Predicted in vivo hep CL, Mouse” value in series [5] is on record as 41 %LBF.

Consider `N#Cc1ccc(-c2nc3cc(C4=NCCCN4)ccc3[nH]2)cc1` [Compound 6b, 2–(4-Cyanophenyl)-5(6)–(3,4,5,6-tetrahydropyrimidin-1-ium-2-yl)benzimidazole chloride], for which the IC50 in series [1] is > 50 µM; in series [2] it was > 100 µM; in series [3], > 100 µM; in series [4], > 100 µM. The “Microsomes (1 µM) Predicted in vivo hep CL, Human” value in series [5] was <30 %LBF. For the same molecule, the “Microsomes (1 µM) Predicted in vivo hep CL, Mouse” value in series [5] was <30 %LBF.

For the molecule `FC(F)(F)c1ccc(-c2nc3cc(C4=NCCCN4)ccc3[nH]2)cc1` [Compound 6c, 2–(4-Trifluoromethylphenyl)-5(6)–(3,4,5,6-tetrahydropyrimidin-1-ium-2-yl)benzimidazole chloride], the IC50 in series [1] was > 50 µM; in series [2] it was > 100 µM; in series [3], > 100 µM; in series [4], > 100 µM. Also, in series [5], the “Microsomes (1 µM) Predicted in vivo hep CL, Human” value is reported as <30 %LBF. Besides, in series [5], the “Microsomes (1 µM) Predicted in vivo hep CL, Mouse” value is reported as <30 %LBF.

As for `c1ccc2sc(-c3nc4cc(C5=NCCCN5)ccc4[nH]3)cc2c1` [Compound 6d, 2-(Benzo[b]thiophen-2-yl)-5(6)–(3,4,5,6-tetrahydropyrimidin-1-ium-2-yl)benzimidazole chloride], the concentration for half-maximal inhibition (IC50) is > 50 µM in series [1], > 100 µM in series [2], > 100 µM in series [3] and > 100 µM in series [4]. In series [5], the “Microsomes (1 µM) Predicted in vivo hep CL, Human” value is recorded as <30 %LBF. The “Microsomes (1 µM) Predicted in vivo hep CL, Mouse” value in series [5] is 71 %LBF.

As for `c1ccc2c(-c3nc4ccc(C5=NCCCN5)cc4[nH]3)c[nH]c2c1` [Compound 6e, 2-(1H-Indol-3-yl)-5(6)–(3,4,5,6-tetrahydropyrimidin-1-ium-2-yl)benzimidazole chloride], the IC50 is > 50 µM in series [1], > 100 µM in series [2], > 100 µM in series [3] and > 100 µM in series [4]. For the same molecule, the “Microsomes (1 µM) Predicted in vivo hep CL, Human” value in series [5] is listed as <30 %LBF. Moreover, in series [5], the “Microsomes (1 µM) Predicted in vivo hep CL, Mouse” value was 78 %LBF.
